Data as given in patent US20260166159A1, “KRAS G12D DEGRADATION AGENT, AND PREPARATION METHOD AND USE THEREFOR” (LEADINGTAC PHARMACEUTICAL (SHAOXING) CO., LTD., priority 2022, published 2026).
pIC50: −log10 of the molar value.

Columns and labels:
KRAS-G12D = biological target: T1, KRAS-G12D (Homo sapiens, UniProt P01116, G12D); assay: KRAS-G12D degradation assay (Western Blot), A-427 cells; assay type: cell-based; conditions: A427 cells, 24 h, class symbols; for Dmax: A-427
T1 construct: endogenous in cells; host or cells: A-427 (ATCC), AGS, AsPc-1, Panc 04.03
Summary of the method: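 Each KRAS G12D mutant line (A-427, AGS, AsPc-1, Panc 04.03) was seeded at 5×10^5 cells/well and treated 24 h at 37 °C with 0.03–3000 nM compound (final DMSO 0.25%). KRAS in lysates was measured by Western blot, normalized to β-actin and compared with controls, giving DC50 and Dmax from curve fits.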

[1] = biological target: T2, Human KRAS G12D 6His-tagged (Homo sapiens, UniProt P01116, G12D); assay: KRAS-G12D/GTP binding assay (HTRF)
T2 construct: purchased PerkinElmer
Experimental: In this method, the inhibitory effects of the compounds on the binding of KRAS-G12D to GTP were assayed by a homogeneous time-resolved fluorescence (HTRF) technique using a KRAS-G12D/GTP binding assay kit (PerkinElmer).
The experimental procedures were as follows (refer to the kit instructions for detailed test methods): the compounds of the present disclosure were each firstly dissolved in DMSO at a concentration of 20 mM, and then diluted in an equal gradient with a buffer in the kit, so that the final concentrations of the test compounds in the reaction system were in a range of 0.02-5000 nM, and the final concentration of DMSO was 0.5%. 5 μL of each compound was incubated with 5 μL of 1× Human KRAS G12D 6His-tagged (PerkinElmer), 5 μL of 1×6His Eu Cryptate Antibody (PerkinElmer), and 5 μL of 1×GTP Red reagent (PerkinElmer) in a 384-well plate (Greiner) at 25° C. for 1 h. After the incubation was completed, the fluorescence intensity of each well was measured at the excitation wavelength of 337 nm and the emission wavelengths of 620 nm and 665 nm with an EnVision microplate reader (PerkinElmer) in the HTRF mode, and Ratio values were calculated using the formula: Ratio=(665 nm/620 nm)×[…]. The inhibition rates of the compounds at each concentration were calculated by comparing the fluorescence intensity ratio with that of the control group. Then non-linear curve fittings for logarithmic concentration-inhibition rate were performed using the GraphPad Prism 8 analysis software, and the IC50 values of the compounds were obtained (Table 2).

[2] = system: KRAS G12D mutant human gastric cancer cell AGS; assay: 3D cell proliferation inhibition assay, AGS; assay type: cell-based; conditions: 168 h, 7 days, CTG
Summary of the method: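 Cells were seeded at 5×10^2 cells/well in low-adsorption plates with compound (10000–0.026 nM final, 0.2% DMSO) and grown for 7 days at 37 °C, 5% CO2. Viability was read by CTG luminescence after 60 min at room temperature. IC50 came from log concentration–inhibition curve fits, normalised to DMSO and medium-only controls.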

T2 sequence (P01116 1-188 isoform P01116-2 G12D): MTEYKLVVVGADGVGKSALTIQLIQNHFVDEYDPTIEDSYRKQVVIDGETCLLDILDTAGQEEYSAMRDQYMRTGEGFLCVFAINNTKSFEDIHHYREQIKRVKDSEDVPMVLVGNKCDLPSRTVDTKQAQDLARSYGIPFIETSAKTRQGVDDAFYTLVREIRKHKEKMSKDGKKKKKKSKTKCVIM
T1 sequence (P01116 1-188 isoform P01116-2 G12D): as above

| Compound | DC50 (KRAS-G12D) [nM] | Dmax (KRAS-G12D) [%] | pIC50 ([1]; class symbols) | pIC50 ([2]; class symbols) | pIC50 ([1]; numeric values) | pIC50 ([2]; numeric values) |
| --- | --- | --- | --- | --- | --- | --- |
| CCc1cccc2cc(O)cc(-c3ncc4c(N5CC6CCC(C5)N6)nc(OC[C@@H]5CCCN5CCCC5CCN(C(=O)c6ccc(Cl)c(N7CCC(=O)NC7=O)c6)CC5)nc4c3F)c12 [Example 1, 1-(5-(4-(3-((S)-2-(((4-(3,8-diazabicyclo[3.2.1]octan-3-yl)-7-(8-ethyl-3-hydroxynaphthalen-1-yl)-8-fluoropyrido[4,3-d]pyrimidin-2-yl)oxy)methyl)pyrrolidin-1-yl)propyl)piperidine-1-carbonyl)-2-chlorophenyl)dihydropyrimidine-2,4(1H,3H)-dione] | 1000 to 10000 | 30 to 50 | 6.30 to 7.00 | – | – | – |
| C#Cc1c(F)ccc2cc(O)cc(-c3ncc4c(N5CC6CCC(C5)N6)nc(OC[C@@H]5CCCN5CCCC5CCN(C(=O)c6ccc(Cl)c(N7CCC(=O)NC7=O)c6)CC5)nc4c3F)c12 [Example 9, 1-(5-(4-(3-((S)-2-(((4-(3,8-diazabicyclo[3.2.1]octan-3-yl)-7-(8-ethynyl-7-fluoro-3-hydroxynaphthalen-1-yl)-8-fluoropyrido[4,3-d]pyrimidin-2-yl)oxy)methyl)pyrrolidin-1-yl)propyl)piperidine-1-carbonyl)-2-chlorophenyl)dihydropyrimidine-2,4(1H,3H)-dione] | 1000 to 10000 | 30 to 50 | 7.00 to 7.30 | – | – | – |
| C#Cc1c(F)ccc2cc(O)cc(-c3ncc4c(N5CC6CCC(C5)N6)nc(OC[C@@H]5CCCN5CC5CCC6(CC5)CCN(C(=O)c5ccc(Cl)c(N7CCC(=O)NC7=O)c5)CC6)nc4c3F)c12 [Example 12, 1-(5-(9-(((S)-2-(((4-(3,8-diazabicyclo[3.2.1]octan-3-yl)-7-(8-ethynyl-7-fluoro-3-hydroxynaphthalen-1-yl)-8-fluoropyrido[4,3-d]pyrimidin-2-yl)oxy)methyl)pyrrolidin-1-yl)methyl)-3-azaspiro[5.5]undecane-3-carbonyl)-2-chlorophenyl)dihydropyrimidine-2,4(1H,3H)-dione] | 1000 to 10000 | 50 to 80 | 6.30 to 7.00 | – | – | – |
| C#Cc1c(F)ccc2cc(O)cc(-c3ncc4c(N5CC6CCC(C5)N6)nc(OCC5(CN6CCN(CC7CCN(C(=O)c8ccc(Cl)c(N9CCC(=O)NC9=O)c8)CC7)CC6)CC5)nc4c3F)c12 [Example 27, 1-(5-(4-((4-((1-(((4-(3,8-diazabicyclo[3.2.1]octan-3-yl)-7-(8-ethynyl-7-fluoro-3-hydroxynaphthalen-1-yl)-8-fluoropyrido[4,3-d]pyrimidin-2-yl)oxy)methyl)cyclopropyl)methyl)piperazin-1-yl)methyl)piperidine-1-carbonyl)-2-chlorophenyl)dihydropyrimidine-2,4(1H,3H)-dione] | 1000 to 10000 | 30 to 50 | ≥ 7.30 | ≥ 7.30 | – | – |
| C#Cc1c(F)ccc2cc(O)cc(-c3ncc4c(N5CC6CCC(C5)N6)nc(OCC5(CN6CCC(CCN7CCN(C(=O)c8ccc(Cl)c(N9CCC(=O)NC9=O)c8)CC7)CC6)CC5)nc4c3F)c12 [Example 28, 1-(5-(4-(2-(1-((1-(((4-(3,8-diazabicyclo[3.2.1]octan-3-yl)-7-(8-ethynyl-7-fluoro-3-hydroxynaphthalen-1-yl)-8-fluoropyrido[4,3-d]pyrimidin-2-yl)oxy)methyl)cyclopropyl)methyl)piperidin-4-yl)ethyl)piperazine-1-carbonyl)-2-chlorophenyl)dihydropyrimidine-2,4(1H,3H)-dione] | 1000 to 10000 | < 30 | ≥ 7.30 | – | – | – |
| CCc1cccc2cc(O)cc(-c3ncc4c(N5CC6CCC(C5)N6)nc(OC[C@@H]5CCCN5CCC5CCN(CCC(=O)N[C@H](C(=O)N6C[C@H](O)C[C@H]6C(=O)NCc6ccc(-c7scnc7C)cc6)C(C)(C)C)CC5)nc4c3F)c12 [Example 34, (2S,4R)-1-((S)-2-(3-(4-(2-((S)-2-(((4-(3,8-diazabicyclo[3.2.1]octan-3-yl)-7-(8-ethyl-3-hydroxynaphthalen-1-yl)-8-fluoropyrido[4,3-d]pyrimidin-2-yl)oxy)methyl)pyrrolidin-1-yl)ethyl)piperidin-1-yl)propanamido)-3,3-dimethylbutanoyl)-4-hydroxy-N-(4-(4-methylthiazol-5-yl)benzyl)pyrrolidine-2-carboxamide] | 1000 to 10000 | < 30 | 6.30 to 7.00 | – | – | – |
| C#Cc1c(F)ccc2cc(O)cc(-c3ncc4c(N5CC6CCC(C5)N6)nc(OC[C@@H]5CCCN5CC5CCN(CCC(=O)N[C@H](C(=O)N6C[C@H](O)C[C@H]6C(=O)NCc6ccc(-c7scnc7C)cc6)C(C)(C)C)CC5)nc4c3F)c12 [Example 35, (2S,4R)-1-((S)-2-(3-(4-(((S)-2-(((4-(3,8-diazabicyclo[3.2.1]octan-3-yl)-7-(8-ethynyl-7-fluoro-3-hydroxynaphthalen-1-yl)-8-fluoropyrido[4,3-d]pyrimidin-2-yl)oxy)methyl)pyrrolidin-1-yl)methyl)piperidin-1-yl)propanamido)-3,3-dimethylbutanoyl)-4-hydroxy-N-(4-(4-methylthiazol-5-yl)benzyl)pyrrolidine-2-carboxamide] | 1000 to 10000 | < 30 | ≥ 7.30 | – | – | – |
| C#Cc1c(F)ccc2cc(O)cc(-c3ncc4c(N5CC6CCC(C5)N6)nc(OCC5CCN(CCCCC6CCC7(CC6)CCN(C(=O)c6ccc(Cl)c(N8CCC(=O)NC8=O)c6)CC7)CC5)nc4c3F)c12 [Example 52, 1-(5-(9-(4-(4-(((4-(3,8-diazabicyclo[3.2.1]octan-3-yl)-7-(8-ethynyl-7-fluoro-3-hydroxynaphthalen-1-yl)-8-fluoropyrido[4,3-d]pyrimidin-2-yl)oxy)methyl)piperidin-1-yl)butyl)-3-azaspiro[5.5]undecane-3-carbonyl)-2-chlorophenyl)dihydropyrimidine-2,4(1H,3H)-dione] | 100 to 500 | 50 to 80 | 6.30 to 7.00 | – | – | – |
| C#Cc1c(F)ccc2cc(O)cc(-c3ncc4c(N5CC6CCC(C5)N6)nc(OCC5(CN6CC7CCC(C6)N7CC6CCC7(CC6)CCN(C(=O)c6ccc(Cl)c(N8CCC(=O)NC8=O)c6)CC7)CC5)nc4c3F)c12 [Example 58, 1-(5-(9-((3-((1-(((4-(3,8-diazabicyclo[3.2.1]octan-3-yl)-7-(8-ethynyl-7-fluoro-3-hydroxynaphthalen-1-yl)-8-fluoropyrido[4,3-d]pyrimidin-2-yl)oxy)methyl)cyclopropyl)methyl)-3,8-diazabicyclo[3.2.1]octan-8-yl)methyl)-3-azaspiro[5.5]undecane-3-carbonyl)-2-chlorophenyl)dihydropyrimidine-2,4(1H,3H)-dione] | ≤ 50 | 80 to 100 | 6.00 to 6.30 | – | – | – |
| C#Cc1c(F)ccc2cc(O)cc(-c3ncc4c(N5CC6CCC(C5)N6)nc(OCC5(CN6CCN(C(=O)c7ccc(Cl)c(N8CCC(=O)NC8=O)c7)CC6)CC5)nc4c3F)c12 [Example 69, 1-(5-(4-((1-(((4-(3,8-diazabicyclo[3.2.1]octan-3-yl)-7-(8-ethynyl-7-fluoro-3-hydroxynaphthalen-1-yl)-8-fluoropyrido[4,3-d]pyrimidin-2-yl)oxy)methyl)cyclopropyl)methyl)piperazine-1-carbonyl)-2-chlorophenyl)dihydropyrimidine-2,4(1H,3H)-dione] | – | – | – | – | 8.62 | – |
| C#Cc1c(F)ccc2cc(O)cc(-c3ncc4c(N5CC6CCC(C5)N6)nc(OCC5(CN6CCC7(CC6)CCN(C(=O)c6ccc(Cl)c(N8CCC(=O)NC8=O)c6)CC7)CC5)nc4c3F)c12 [Example 85, 1-(5-(9-((1-(((4-(3,8-diazabicyclo[3.2.1]octan-3-yl)-7-(8-ethynyl-7-fluoro-3-hydroxynaphthalen-1-yl)-8-fluoropyrido[4,3-d]pyrimidin-2-yl)oxy)methyl)cyclopropyl)methyl)-3,9-diazaspiro[5.5]undecane-3-carbonyl)-2-chlorophenyl)dihydropyrimidine-2,4(1H,3H)-dione] | – | – | – | – | 8.87 | 7.30 |
